# Literature values, collected in PubChem BioAssay AID1259409 (Chemical Carcinogenesis Research Information System (CCRIS), 2018).
# Test system: rodent chemically induced tumor inhibition, incidence and multiplicity
# Experiment: CCRIS tumor inhibitor studies
# Details: Carcinogen: DIETHYLNITROSAMINE, 55-18-5, N-METHYLNITROSOUREA, 684-93-5, 1,2-DIMETHYLHYDRAZINE, 540-73-8, N-BUTYL-N-(4-HYDROXYB, Carcinogen: DIETHYLNITROSAMINE, 55-18-5, N-METHYLNITROSOUREA, 684-93-5, 1,2-DIMETHYLHYDRAZINE, 540-73-8, N-BUTYL-N-(4-HYDROXYB, Dose [Inhibitor]: 0, Route [Inhibitor]: ORAL, Species: RAT, Strain/Sex: F344/MALE, Dose [Carcinogen]: 100 MG/KG DEN ONCE, 20 MG/KG MNU 4 TIMES, 40 MG/KG DMH 4 TIMES, 0.05% BBN IN DRINKING WATER FOR 2 WK, 0.1% DHPN IN D, Dose [Carcinogen]: 100 MG/KG DEN ONCE, 20 MG/KG MNU 4 TIMES, 40 MG/KG DMH 4 TIMES, 0.05% BBN IN DRINKING WATER FOR 2 WK, 0.1% DHPN IN D, Promoter: NONE USED
structure (smiles),measurement,setting,value
O=c1c(O)c(-c2ccc(O)c(O)c2)oc2cc(O)cc(O)c12,"tumour outcome (control, treated, inhibition, significance)","1% IN DIET FOR 4 WK BEGINNING 1 DAY PRIOR TO CARCINOGEN TREATMENT (STUDY DURATION: 36 WK), Target Tissue: Type of Lesion: LUNG: ADENOMA","6/14 (43%), 2/13 (15%), 65%, not significant"
same,"tumour outcome (control, treated, inhibition, significance)","1% IN DIET FOR 4 WK BEGINNING 1 DAY PRIOR TO CARCINOGEN TREATMENT (STUDY DURATION: 36 WK), Target Tissue: Type of Lesion: SMALL INTESTINE: ADENOMA","6/14 (43%), 1/13 (8%), 81%, p<0.05"
same,"tumour outcome (control, treated, inhibition, significance)","1% IN DIET FOR 4 WK BEGINNING 1 DAY PRIOR TO CARCINOGEN TREATMENT (STUDY DURATION: 36 WK), Target Tissue: Type of Lesion: SMALL INTESTINE: CARCINOMA","5/14 (36%), 2/13 (15%), 58%, not significant"
same,"tumour outcome (control, treated, inhibition, significance)","1% IN DIET FOR 32 WK BEGINNING POST CARCINOGEN TREATMENT (STUDY DURATION: 36 WK), Target Tissue: Type of Lesion: KIDNEY: ADENOMA","4/14 (29%), 3/12 (25%), 14%, not significant"
same,"tumour outcome (control, treated, inhibition, significance)","1% IN DIET FOR 32 WK BEGINNING POST CARCINOGEN TREATMENT (STUDY DURATION: 36 WK), Target Tissue: Type of Lesion: KIDNEY: NEPHROBLASTOMA","7/14 (50%), 4/12 (33%), 34%, not significant"
same,"tumour outcome (control, treated, inhibition, significance)","1% IN DIET FOR 32 WK BEGINNING POST CARCINOGEN TREATMENT (STUDY DURATION: 36 WK), Target Tissue: Type of Lesion: LARGE INTESTINE: CARCINOMA","3/14 (21%), 4/12 (33%), -57%, not significant"
